Results published in PubChem BioAssay (NCI).
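Following 48 hours of exposure in 96-well plates, responses at five concentrations were used to interpolate endpoints linearly. At the TGI there is no net growth.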

Assays:
Experiment in all cases: NCI tumour cell line growth inhibition, 48 h
DU-145 prostate = system: DU-145 prostate
MDA-MB-231 breast = system: MDA-MB-231 breast
UO-31 renal = system: UO-31 renal
HS 578T breast = system: HS 578T breast
SF-295 CNS = system: SF-295 CNS
HCC-2998 colon = system: HCC-2998 colon
KM12 colon = system: KM12 colon
LOX IMVI melanoma = system: LOX IMVI melanoma
SK-OV-3 ovarian = system: SK-OV-3 ovarian
SW-620 colon = system: SW-620 colon
OVCAR-4 ovarian = system: OVCAR-4 ovarian
CCRF-CEM leukemia = system: CCRF-CEM leukemia
HCT-116 colon = system: HCT-116 colon
786-0 renal = system: 786-0 renal
T-47D breast = system: T-47D breast
COLO 205 colon = system: COLO 205 colon
M14 melanoma = system: M14 melanoma
MCF7 breast = system: MCF7 breast
SN12C renal = system: SN12C renal
HT29 colon = system: HT29 colon
OVCAR-3 ovarian = system: OVCAR-3 ovarian
OVCAR-5 ovarian = system: OVCAR-5 ovarian
CAKI-1 renal = system: CAKI-1 renal
MDA-N = system: MDA-N
NCI-H23 lung = system: NCI-H23 lung
HOP-62 NSCLC = system: HOP-62 NSCLC
U251 CNS = system: U251 CNS
A498 renal = system: A498 renal
MALME-3M melanoma = system: MALME-3M melanoma
HCT-15 colon = system: HCT-15 colon
SK-MEL-2 melanoma = system: SK-MEL-2 melanoma
EKVX NSCLC = system: EKVX NSCLC
OVCAR-8 ovarian = system: OVCAR-8 ovarian
BT-549 breast = system: BT-549 breast
UACC-62 melanoma = system: UACC-62 melanoma
NCI-H226 lung = system: NCI-H226 lung
MDA-MB-435 = system: MDA-MB-435
RXF 393 renal = system: RXF 393 renal
NCI/ADR-RES ovarian = system: NCI/ADR-RES ovarian
SF-268 CNS = system: SF-268 CNS
NCI-H460 lung = system: NCI-H460 lung
UACC-257 melanoma = system: UACC-257 melanoma
SNB-19 CNS = system: SNB-19 CNS
SNB-75 CNS = system: SNB-75 CNS
RPMI-8226 leukemia = system: RPMI-8226 leukemia
SF-539 CNS = system: SF-539 CNS
ACHN renal = system: ACHN renal
PC-3 prostate = system: PC-3 prostate
A549 NSCLC = system: A549 NSCLC
SK-MEL-28 melanoma = system: SK-MEL-28 melanoma
SK-MEL-5 melanoma = system: SK-MEL-5 melanoma
HL-60(TB) leukemia = system: HL-60(TB) leukemia
IGROV1 ovarian = system: IGROV1 ovarian
TK-10 renal = system: TK-10 renal
MOLT-4 leukemia = system: MOLT-4 leukemia
HOP-92 NSCLC = system: HOP-92 NSCLC
NCI-H522 lung = system: NCI-H522 lung
K-562 leukemia = system: K-562 leukemia

## O=[N+]([O-])/C(C(Cl)=C(Cl)Cl)=C(\Nc1cccc2ccccc12)n1nnc2ccccc21
DU-145 prostate
  TGI: > 100 µM
MDA-MB-231 breast
  TGI: > 100 µM
UO-31 renal
  TGI: > 100 µM
HS 578T breast
  TGI: 39.1 µM
SF-295 CNS
  TGI: > 100 µM
HCC-2998 colon
  TGI: > 100 µM
KM12 colon
  TGI: > 100 µM
LOX IMVI melanoma
  TGI: > 100 µM
SK-OV-3 ovarian
  TGI: > 100 µM
SW-620 colon
  TGI: > 100 µM
OVCAR-4 ovarian
  TGI: > 100 µM
CCRF-CEM leukemia
  TGI: > 100 µM
HCT-116 colon
  TGI: > 100 µM
786-0 renal
  TGI: > 100 µM
T-47D breast
  TGI: > 100 µM
COLO 205 colon
  TGI: 41 µM
M14 melanoma
  TGI: > 100 µM
MCF7 breast
  TGI: > 100 µM
SN12C renal
  TGI: > 100 µM
HT29 colon
  TGI: > 100 µM
OVCAR-3 ovarian
  TGI: > 100 µM
OVCAR-5 ovarian
  TGI: > 100 µM
CAKI-1 renal
  TGI: > 100 µM
MDA-N
  TGI: > 100 µM
NCI-H23 lung
  TGI: > 100 µM
HOP-62 NSCLC
  TGI: > 100 µM
U251 CNS
  TGI: > 100 µM
A498 renal
  TGI: > 100 µM
MALME-3M melanoma
  TGI: > 100 µM
HCT-15 colon
  TGI: > 100 µM
SK-MEL-2 melanoma
  TGI: > 100 µM
EKVX NSCLC
  TGI: > 100 µM
OVCAR-8 ovarian
  TGI: > 100 µM
BT-549 breast
  TGI: 98.8 µM
UACC-62 melanoma
  TGI: > 100 µM
NCI-H226 lung
  TGI: > 100 µM
MDA-MB-435
  TGI: > 100 µM
RXF 393 renal
  TGI: 79.3 µM
NCI/ADR-RES ovarian
  TGI: > 100 µM
SF-268 CNS
  TGI: > 100 µM
NCI-H460 lung
  TGI: > 100 µM
UACC-257 melanoma
  TGI: > 100 µM
SNB-19 CNS
  TGI: > 100 µM
SNB-75 CNS
  TGI: > 100 µM
RPMI-8226 leukemia
  TGI: > 100 µM
SF-539 CNS
  TGI: > 100 µM
ACHN renal
  TGI: > 100 µM
PC-3 prostate
  TGI: > 100 µM
A549 NSCLC
  TGI: > 100 µM
SK-MEL-28 melanoma
  TGI: > 100 µM

## C=C1C(=O)C23CC1CCC2C12CO[C@H](O)[C@H]1C(C)(C)[C@H](OC(C)=O)C[C@H]2OC3=O (some centres not stated)
DU-145 prostate
  TGI: 83.3 µM
MDA-MB-231 breast
  TGI: 37.2 µM
UO-31 renal
  TGI: 67.7 µM
HS 578T breast
  TGI: > 100 µM
SK-MEL-5 melanoma
  TGI: 77.1 µM
SF-295 CNS
  TGI: > 100 µM
HCC-2998 colon
  TGI: 54.2 µM
KM12 colon
  TGI: > 100 µM
LOX IMVI melanoma
  TGI: 33.7 µM
SK-OV-3 ovarian
  TGI: > 100 µM
SW-620 colon
  TGI: 30.5 µM
OVCAR-4 ovarian
  TGI: > 100 µM
CCRF-CEM leukemia
  TGI: > 100 µM
HCT-116 colon
  TGI: 28 µM
786-0 renal
  TGI: 29.9 µM
T-47D breast
  TGI: 40.5 µM
COLO 205 colon
  TGI: 28.8 µM
M14 melanoma
  TGI: 53.2 µM
MCF7 breast
  TGI: 32.4 µM
SN12C renal
  TGI: 46.2 µM
HT29 colon
  TGI: 27.1 µM
OVCAR-3 ovarian
  TGI: 55.2 µM
OVCAR-5 ovarian
  TGI: 33.3 µM
CAKI-1 renal
  TGI: 28.8 µM
HL-60(TB) leukemia
  TGI: 87.9 µM
MDA-N
  TGI: 30.6 µM
NCI-H23 lung
  TGI: > 100 µM
U251 CNS
  TGI: > 100 µM
MALME-3M melanoma
  TGI: 28.1 µM
HCT-15 colon
  TGI: 28.8 µM
SK-MEL-2 melanoma
  TGI: 31.1 µM
EKVX NSCLC
  TGI: 29.1 µM
OVCAR-8 ovarian
  TGI: > 100 µM
BT-549 breast
  TGI: 21.9 µM
UACC-62 melanoma
  TGI: 28.9 µM
NCI-H226 lung
  TGI: > 100 µM
IGROV1 ovarian
  TGI: > 100 µM
MDA-MB-435
  TGI: 44.8 µM
TK-10 renal
  TGI: 28.5 µM
MOLT-4 leukemia
  TGI: 82.2 µM
NCI/ADR-RES ovarian
  TGI: > 100 µM
HOP-92 NSCLC
  TGI: 22.2 µM
SF-268 CNS
  TGI: 34.2 µM
NCI-H460 lung
  TGI: > 100 µM
UACC-257 melanoma
  TGI: > 100 µM
SNB-19 CNS
  TGI: > 100 µM
NCI-H522 lung
  TGI: 3.63 µM
K-562 leukemia
  TGI: > 100 µM
SNB-75 CNS
  TGI: > 100 µM
RPMI-8226 leukemia
  TGI: > 100 µM
SF-539 CNS
  TGI: 41.7 µM
ACHN renal
  TGI: 29.6 µM
PC-3 prostate
  TGI: > 100 µM
A549 NSCLC
  TGI: > 100 µM
SK-MEL-28 melanoma
  TGI: 33.2 µM

## Cc1ccc(I)cc1N=C=S
DU-145 prostate
  TGI: 96.1 µM
MDA-MB-231 breast
  TGI: 71.1 µM
UO-31 renal
  TGI: 33 µM
HS 578T breast
  TGI: 91.8 µM
SK-MEL-5 melanoma
  TGI: 30.1 µM
SF-295 CNS
  TGI: 62.8 µM
KM12 colon
  TGI: 36.9 µM
LOX IMVI melanoma
  TGI: 53.8 µM
SK-OV-3 ovarian
  TGI: > 100 µM
SW-620 colon
  TGI: > 100 µM
OVCAR-4 ovarian
  TGI: > 100 µM
CCRF-CEM leukemia
  TGI: 57.2 µM
HCT-116 colon
  TGI: 91.9 µM
786-0 renal
  TGI: 60 µM
T-47D breast
  TGI: 42.5 µM
COLO 205 colon
  TGI: 34 µM
M14 melanoma
  TGI: 38.7 µM
MCF7 breast
  TGI: 54.4 µM
SN12C renal
  TGI: 49.3 µM
HT29 colon
  TGI: 53 µM
OVCAR-3 ovarian
  TGI: > 100 µM
OVCAR-5 ovarian
  TGI: 50.4 µM
CAKI-1 renal
  TGI: 71.2 µM
HL-60(TB) leukemia
  TGI: 44.3 µM
MDA-N
  TGI: 86.5 µM
NCI-H23 lung
  TGI: 42.1 µM
HOP-62 NSCLC
  TGI: 59.8 µM
U251 CNS
  TGI: 48.6 µM
A498 renal
  TGI: 48.8 µM
MALME-3M melanoma
  TGI: 61.5 µM
HCT-15 colon
  TGI: 34.8 µM
SK-MEL-2 melanoma
  TGI: 38.6 µM
EKVX NSCLC
  TGI: 63.4 µM
OVCAR-8 ovarian
  TGI: > 100 µM
BT-549 breast
  TGI: 30.5 µM
UACC-62 melanoma
  TGI: 31.6 µM
NCI-H226 lung
  TGI: 39.9 µM
IGROV1 ovarian
  TGI: > 100 µM
MDA-MB-435
  TGI: 73.7 µM
TK-10 renal
  TGI: 88.7 µM
RXF 393 renal
  TGI: 40.6 µM
MOLT-4 leukemia
  TGI: 43.8 µM
NCI/ADR-RES ovarian
  TGI: 63.3 µM
HOP-92 NSCLC
  TGI: > 100 µM
SF-268 CNS
  TGI: 75.8 µM
NCI-H460 lung
  TGI: 52.1 µM
UACC-257 melanoma
  TGI: 63.9 µM
SNB-19 CNS
  TGI: 70.1 µM
NCI-H522 lung
  TGI: 36.6 µM
K-562 leukemia
  TGI: 54.7 µM
SNB-75 CNS
  TGI: 52.7 µM
RPMI-8226 leukemia
  TGI: 54.1 µM
SF-539 CNS
  TGI: 35.4 µM
ACHN renal
  TGI: 54.8 µM
PC-3 prostate
  TGI: 51.4 µM
A549 NSCLC
  TGI: 82.3 µM
SK-MEL-28 melanoma
  TGI: 39.2 µM
